Experimental data from the METLIN SMRT retention time set (Domingo-Almenara et al. 2019).

Assay: gradient 5% acetonitrile 3 min, to 50% in 2 min, to 85% in 15 min, held 3 min, 100 µL/min
Settings: column: Zorbax Extend-C18 2.1 x 50 mm; eluents: water / acetonitrile, 0.1% formic acid
Summary of the method: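 Mixtures of ~100 pure standards were chromatographed on a Zorbax Extend-C18 column (2.1 × 50 mm, 1.8 μm) at 100 μL/min using water and acetonitrile, each with 0.1% formic acid. Detection used a quadrupole time-of-flight mass spectrometer in positive and negative ionization mode, and data collection spanned 3 months. Retention time was obtained from adduct peaks picked computationally and each checked manually.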

SMILES | RP-LC retention time
O=C(CCc1nc(CSc2nnc(-c3ccccc3)o2)no1)Nc1ccc(Br)cc1 | 967 s
OC(COc1ccccc1)CN1CCN(c2ccccc2)CC1 (stereo not drawn) | 724 s
CCn1cc(CCN2CCN(S(=O)(=O)c3ccc(C)cc3)CC2)c2cccnc21 | 652 s
O=C(NCCCOc1cccc2cccnc12)c1c(F)cccc1F | 574 s
CCOC(=O)c1cncn1C(C)c1ccccc1 (stereo not drawn) | 774 s
COc1nn(C)cc1C(=O)NCc1cc(-c2ccco2)on1 | 644 s
O=C(O)CSc1nnc(COc2cccc3cccnc23)n1-c1ccccc1 | 577 s
Cc1ccccc1Oc1nccn2c(=O)n(CC(=O)NCc3ccccc3)nc12 | 797 s
CC(C)NC(=O)c1ccc(OCC2CCCN2C(=O)c2ccco2)cc1 (stereo not drawn) | 757 s
CCOc1ccc(-c2noc(Cc3nc(-c4ccc5c(c4)OCO5)cs3)n2)cc1 | 1200 s
CC(C)NC(=O)c1n[nH]c2c1CCCCCC2 | 754 s
COc1cc([C@@H]2c3cc4c(cc3[C@H](O)[C@@H](CO)[C@@H]2C(=O)NCc2ccc(C)o2)OCO4)cc(OC)c1OC | 674 s
COc1ccccc1CN[C@H]1CCCN[C@H]1c1ccccc1 | 578 s
O=c1n(Cc2ccccc2)nc2ccc(S(=O)(=O)N3CCOCC3)cn12 | 778 s
CCCCn1c(SCc2nc(-c3ccc(OCC)cc3)no2)nc2cc3c(cc2c1=O)OCO3 | 1390 s
O=C(O)c1cnc(NCc2ccco2)nc1-c1ccccc1 | 772 s
COc1ccccc1-c1nn2c(-c3cc(C(C)C)[nH]n3)nnc2s1 | 872 s
CC(O)(CNC(=O)NCc1cccs1)C1CC1 (stereo not drawn) | 632 s
O=C(NCCc1ccccn1)c1cccc(N2CCNC(c3ccccc3)C2)n1 (stereo not drawn) | 554 s

SMILES | RP-LC retention time
COc1ccc(CNC(=O)c2nc(N3CCOCC3)c3ccccc3n2)cc1 | 662 s
O=C(CC1c2ncccc2C(=O)N1c1ccc(F)cc1)NCc1cc(F)ccc1F (stereo not drawn) | 737 s
Cc1cc2cc3n(c2nn1)N=C(Cl)CC3 | 610 s
COC(=O)c1cc2c(=O)n(-c3ccc(Cl)c(Cl)c3)ccc2nc1C | 915 s
Cc1ccccc1-c1nc(Cn2c(C)nc3onc(C)c3c2=O)c(C)o1 | 1120 s
COCCN1CCCc2ccc(NC(=O)c3ccc(Br)o3)cc21 | 913 s
CCc1ccc(S(=O)(=O)c2cnc(N3CCC4(CC3)OCCO4)nc2N)cc1 | 944 s
CC(C)c1ccc(C(O)Cn2ccn3nc(-c4ccc(F)cc4)cc3c2=O)cc1 (stereo not drawn) | 1110 s
CCN1C(=O)C(C)(C(=O)Nc2ccccc2F)Oc2cccnc21 (stereo not drawn) | 855 s
Cc1ccc(-c2ncc(NC(=O)c3ccc(Cl)s3)cn2)cc1 | 1140 s
O=C(Cn1cnc2ccccc21)N1CCN(C(=O)C2CC2c2cccs2)CC1 (stereo not drawn) | 592 s
O=[N+]([O-])c1ccccc1OCC(O)CN1CCN(c2ccccc2F)CC1 (stereo not drawn) | 577 s
O=C(Nc1cc(Cl)cc(Cl)c1)N1CC(Cc2nc(-c3cnccn3)no2)C1 | 838 s
O=C(Cc1ccc(Br)cc1)N1CCN(C(=O)c2cc(-c3cccnc3)n[nH]2)CC1 | 638 s
O=C(c1ccc(F)cc1)N1CCN(c2nc(CN3CCOCC3)cs2)CC1 | 597 s
CC(C)N1CCN(Cc2ccc(C(=O)NCc3ccc(C(F)(F)F)cc3)cc2)C(=O)C1=O | 741 s
O=C(NCc1ccc(F)cc1F)c1ccc2c(c1)nc1n2CCN(c2ccccc2)C1=O | 781 s
Cc1ccc(Nc2nc(-c3ccncc3)nc3ccccc23)cc1 | 797 s
O=C(NCc1ccc(F)cc1)c1cc(-c2ccc(F)cc2)ns1 | 1030 s

Next, values leading:

RP-LC retention time | SMILES
868 s | O=C(O)C1CCN(c2nc3ccc(-c4ccccc4)nc3s2)CC1
1230 s | CCOc1nc2ccccc2nc1N1CCCC(C(=O)Nc2ccccc2C(C)C)C1 (stereo not drawn)
770 s | Cc1[nH]c(C(=O)N2CCCC(C(=O)NC(C)C)C2)c(C)c1C(=O)OC(C)C (stereo not drawn)
643 s | CCn1c(=O)c(N2CCC(C(=O)NCCCN3CCCC3=O)CC2)nc2ccccc21
869 s | CC(C)NC(=O)c1ccc(OCC2CCCN(C(=O)c3ccc(F)cc3F)C2)cc1 (stereo not drawn)
744 s | CCCNC(=O)C1CCCN(c2ccc(SCC(=O)Nc3cccc(C(F)(F)F)c3)nn2)C1 (stereo not drawn)
853 s | CC1=C(c2ccc(C)c(C)c2)S(=O)(=O)N=C1N1CCC(NC(=O)C2CCC2)CC1
625 s | Cc1cc(=O)n(CC(=O)N(C)c2ccccc2)c(N2CCCC2)n1
667 s | COc1ccc(CCC(=O)N2CCC[C@@H]2C(=O)NCCc2csc(C)n2)cc1
540 s | CCn1cnc(S(=O)(=O)N2CCC(C(=O)NCc3ccccn3)CC2)c1
697 s | Cc1ccc(N2CCN(C(=O)C3=CCN(Cc4cccc(C)c4)CC3)CC2)cc1
973 s | CCOc1ccc(NC(=O)CSc2nnc3c4cc(-c5ccc(C)c(C)c5)nn4ccn23)cc1
677 s | COc1ccc(NS(=O)(=O)c2cc3n(c2)CCCNC3=O)cc1Cl
749 s | CCn1cnc(S(=O)(=O)N2CCC(C(=O)NCc3ccc(OC(C)C)cc3)CC2)c1
658 s | COc1ccc(NC(=O)Nc2cccc(-c3ccc(N4CCOCC4)nn3)c2)cc1
1100 s | Cc1nc(OCC(=O)N2CCCCCC2)c2c(-c3ccc(F)cc3)noc2n1
827 s | COc1ccc(NC(=O)N2CCCC2c2nc(-c3cccc(C)c3)no2)cc1 (stereo not drawn)
674 s | Cc1ccc(Cl)cc1NC(=O)Cn1c(=O)cnc2cc(C(=O)NC3CC3)ccc21
645 s | COc1ccc(NC(=O)c2ccc(-n3cnc(NC(=O)C4CC4)c3)cc2)cc1OC
622 s | COCc1cc(=O)n(CC(=O)Nc2cccc(C)c2)c(N)n1
1020 s | O=C(NCc1ccc(F)cc1)C1CCN(S(=O)(=O)c2ccc(-c3noc(C4CC4)n3)cc2)CC1
828 s | CC1=C(c2ccc(F)cc2)S(=O)(=O)N=C1N1CCCN(C(=O)C2CCCC2)CC1
706 s | COCCCNC(=O)Cn1nc(C)c2sc(-c3ccccc3)nc2c1=O
767 s | O=C(Nc1nnc(Cc2ccccc2)s1)C1CCN(C(=O)c2ccccc2)CC1
1070 s | Cc1cc(C(=O)OCc2cc(-c3ccc4c(c3)OCCO4)on2)c(C)o1

RP-LC retention time | SMILES
682 s | O=C(Cn1ccc2ccn(CC3CC3)c2c1=O)N1CCOCC1
719 s | CN1C(=O)C(F)=C[C@]2(C)[C@H]3CC[C@]4(C)[C@@H](C(=O)NCc5nc6ncccc6[nH]5)CC[C@H]4[C@@H]3CC[C@@H]12
950 s | O=C(Nc1ccccc1F)C1CCCN(S(=O)(=O)Cc2ccccc2)C1 (stereo not drawn)
850 s | Cc1noc(-c2cccc(OC3CN(S(=O)(=O)c4c(C)nn(C)c4C)C3)c2)n1
759 s | Cc1ccc(-c2cc3c4nnc(CCC(=O)N5CCN(C(=O)c6ccco6)CC5)n4ccn3n2)cc1C
737 s | O=C(Cc1nnc2cc(-c3nc(C4CC4)no3)ccn12)NC1CCCCC1
580 s | Cc1ccc(CN2C(=O)CC(N3CCCCC3)C2=O)cc1 (stereo not drawn)
704 s | COc1ccc(OC)c(NC(=O)Cn2cccc2-c2nnc(C3CC3)o2)c1
701 s | Cc1cc(C)c2nc(C)cc(C(=O)NCC(C)C)c2c1
1190 s | COc1ccc(N2CCN(c3cc(SCC(=O)Nc4cccc(Cl)c4F)ncn3)CC2)cc1
599 s | Cc1ccc(C)c(CN2CCC(CNC(=O)C3CCCN(c4cc(=O)n(C)c(=O)n4C)C3)CC2)c1 (stereo not drawn)
846 s | O=C(NC1CCCCCC1)C1CCN(C(=O)c2ncn3c2COC(c2ccc(F)cc2)C3)CC1 (stereo not drawn)
687 s | O=S(=O)(c1ccc2c(c1)CCC2)N1CCCn2nc(-c3ccncc3)cc2C1
811 s | COc1ccc(NC(=O)c2noc3c2CCC3)cc1OC
1000 s | CCN1C(=O)C2(CCN(S(=O)(=O)c3cc(Cl)ccc3OC)CC2)c2ccccc21
711 s | COc1cc(OC)c(NC(=O)N2CCC(n3c(C)nc4cccnc43)CC2)cc1Cl
750 s | O=C1CCCc2cc(S(=O)(=O)N3CCCN(Cc4ccccc4Cl)C3)ccc2N1
854 s | CCC1Oc2ccc(S(=O)(=O)N3CCC(C(=O)Nc4cccc(OC)c4)CC3)cc2NC1=O (stereo not drawn)
660 s | CCCN1C(=O)c2cc(C(=O)N3CCN(C4CCCCC4)CC3)nn2CC1(C)C(=O)NC1CCCC1 (stereo not drawn)
598 s | CCOC(=O)Cc1ccc(NC(=O)N2CCC(n3c(C)nc4cccnc43)C2)cc1 (stereo not drawn)
690 s | Cc1cccc(N2CCN(C(=O)C3=CCN(Cc4cccc(F)c4)CC3)CC2)c1
610 s | O=C(O)C1CCN(c2nc3ccc(-c4cccnc4)nc3s2)CC1
749 s | O=C(NCCc1csc(-c2ccccc2)n1)C1CCN(C(=O)c2ccco2)CC1
588 s | COc1cc2oc(=O)c(CC(=O)N3CCN(c4ccccn4)CC3)c(C)c2cc1OC
624 s | COC(=O)Cn1c(=O)oc2cc(S(=O)(=O)N3CCN(c4ccccn4)CC3)ccc21
